# “Also recorded” adds a separate entry of the source. Read-outs that look alike come from different tables or passages of the source.
# Tests used:
# eeAChE = eeAChE (Electrophorus electricus, UniProt O42275); experiment: biochemical
# hCB2R [1] = biological target: T1, hCB2R (Homo sapiens, UniProt P34972); experiment: biochemical; assay type: binding
# T1 construct: expressed in transfected cells; host or cells: HEK cells stably expressing hCB2R
# hCB1R = biological target: T2, hCB1R (Homo sapiens, UniProt P21554); assay type: binding
# T2 construct: expressed in transfected cells; host or cells: CHO cells stably expressing hCB1R
# T2 sequence (P21554 whole entry): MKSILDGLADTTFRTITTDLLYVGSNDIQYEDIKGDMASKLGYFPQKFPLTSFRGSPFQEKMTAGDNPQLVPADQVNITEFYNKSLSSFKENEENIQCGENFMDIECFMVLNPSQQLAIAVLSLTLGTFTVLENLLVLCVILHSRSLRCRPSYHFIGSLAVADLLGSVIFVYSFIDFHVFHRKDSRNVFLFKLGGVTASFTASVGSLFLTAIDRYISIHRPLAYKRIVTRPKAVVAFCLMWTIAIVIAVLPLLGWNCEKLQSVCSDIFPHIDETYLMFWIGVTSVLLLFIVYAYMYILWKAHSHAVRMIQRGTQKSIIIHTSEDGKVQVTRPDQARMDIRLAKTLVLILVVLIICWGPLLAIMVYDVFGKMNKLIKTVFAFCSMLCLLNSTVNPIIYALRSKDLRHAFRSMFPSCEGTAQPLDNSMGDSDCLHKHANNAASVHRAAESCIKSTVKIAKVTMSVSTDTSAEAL
# hAChE = hAChE (Homo sapiens, UniProt P22303); experiment: biochemical; assay type: biochemical
# Sequence of hAChE (P22303 32-614): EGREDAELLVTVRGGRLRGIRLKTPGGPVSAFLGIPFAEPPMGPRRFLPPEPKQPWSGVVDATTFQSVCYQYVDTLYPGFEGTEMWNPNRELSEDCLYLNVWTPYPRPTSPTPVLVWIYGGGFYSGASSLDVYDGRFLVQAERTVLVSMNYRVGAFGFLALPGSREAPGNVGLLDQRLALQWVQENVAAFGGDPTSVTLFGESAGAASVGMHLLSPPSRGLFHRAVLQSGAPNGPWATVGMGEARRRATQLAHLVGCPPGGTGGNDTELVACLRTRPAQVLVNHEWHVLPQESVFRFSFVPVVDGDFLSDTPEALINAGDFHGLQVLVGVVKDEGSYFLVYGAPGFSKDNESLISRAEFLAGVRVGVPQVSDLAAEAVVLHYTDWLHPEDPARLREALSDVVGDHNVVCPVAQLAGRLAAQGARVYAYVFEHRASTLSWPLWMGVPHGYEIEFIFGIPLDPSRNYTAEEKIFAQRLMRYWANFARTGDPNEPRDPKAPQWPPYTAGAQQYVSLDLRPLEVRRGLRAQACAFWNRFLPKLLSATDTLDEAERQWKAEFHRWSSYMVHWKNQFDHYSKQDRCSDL
# hBChE = hBChE (Homo sapiens, UniProt P06276); experiment: biochemical; assay type: biochemical
# Sequence of hBChE (P06276 29-602): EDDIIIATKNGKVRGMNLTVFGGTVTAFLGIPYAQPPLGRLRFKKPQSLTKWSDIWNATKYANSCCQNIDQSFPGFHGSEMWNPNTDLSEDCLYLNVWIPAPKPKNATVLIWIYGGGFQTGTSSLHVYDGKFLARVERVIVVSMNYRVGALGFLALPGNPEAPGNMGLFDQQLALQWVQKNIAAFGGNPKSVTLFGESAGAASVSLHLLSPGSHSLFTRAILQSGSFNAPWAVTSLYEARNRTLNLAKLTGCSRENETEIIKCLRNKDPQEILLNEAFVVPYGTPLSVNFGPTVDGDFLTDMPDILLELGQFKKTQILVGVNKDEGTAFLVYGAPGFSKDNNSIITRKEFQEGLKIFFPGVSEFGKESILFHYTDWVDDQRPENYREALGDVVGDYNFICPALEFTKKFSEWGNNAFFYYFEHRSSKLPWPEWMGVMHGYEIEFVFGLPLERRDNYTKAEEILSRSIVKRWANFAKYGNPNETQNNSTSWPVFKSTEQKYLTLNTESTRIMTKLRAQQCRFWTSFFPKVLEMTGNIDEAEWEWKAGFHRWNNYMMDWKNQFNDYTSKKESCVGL
# Aβ42 = Aβ42 (Homo sapiens, UniProt P05067); experiment: Aβ42 self-aggregation, thioflavin-T fluorescence assay; assay type: biochemical; conditions: for inhibition at 50 µM: read-out: % inhibition Aβ aggregation self-induced; for inhibition of Aβ42 self-aggregation (in words): 1/1 ratio with Aβ42
# Sequence of Aβ42 (P05067 672-713): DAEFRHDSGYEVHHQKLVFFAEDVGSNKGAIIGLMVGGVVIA
# [2] = biological target: hAChE-induced Aβ40 aggregation (Homo sapiens, UniProt P22303); experiment: biochemical; assay type: biochemical; conditions: for inhibition at 100 µM: [I] = 100 µM, Aβ40/hAChE ratio 100/1, mean ± SEM, read-out: % inhibition Aβ aggregation AChE-induced
# Sequence of hAChE-induced Aβ40 aggregation (P22303 32-614): as the sequence (P22303 32-614) above
# HT-22 cells = assay type: cell-based, murine
# [3] = test system: Aβ25-35-induced learning impairments in mice; conditions: mouse, ip; for dose that significantly prevented Aβ25-35-induced learning impairments / most effective dose (completely prevented Aβ25-35 impairments in both tests): in vivo
# hCB2R [4] = biological target: T1, hCB2R; assay type: cell-based
# [5] = test system: murine microglial cell line N9; experiment: Microglia activation: LPS-activated N9 cells, M1/M2 markers (Griess reaction, western blot); assay type: cell-based; conditions: N9 cells, 100 ng/mL LPS, 1-5 µM compound, 24 h
# [6] = eeAChE from electric eel, read-out: IC50 AChE (eeAChE)
# [7] = hBChE from human serum, means of at least three determinations, read-out: IC50 hBChE
# [8] = hAChE recombinant expressed, read-out: IC50 AChE (hAChE)
# [9] = 50 µM inhibitor and 50 µM Aβ42, mean ± SEM
# Sequence of eeAChE (O42275 24-633): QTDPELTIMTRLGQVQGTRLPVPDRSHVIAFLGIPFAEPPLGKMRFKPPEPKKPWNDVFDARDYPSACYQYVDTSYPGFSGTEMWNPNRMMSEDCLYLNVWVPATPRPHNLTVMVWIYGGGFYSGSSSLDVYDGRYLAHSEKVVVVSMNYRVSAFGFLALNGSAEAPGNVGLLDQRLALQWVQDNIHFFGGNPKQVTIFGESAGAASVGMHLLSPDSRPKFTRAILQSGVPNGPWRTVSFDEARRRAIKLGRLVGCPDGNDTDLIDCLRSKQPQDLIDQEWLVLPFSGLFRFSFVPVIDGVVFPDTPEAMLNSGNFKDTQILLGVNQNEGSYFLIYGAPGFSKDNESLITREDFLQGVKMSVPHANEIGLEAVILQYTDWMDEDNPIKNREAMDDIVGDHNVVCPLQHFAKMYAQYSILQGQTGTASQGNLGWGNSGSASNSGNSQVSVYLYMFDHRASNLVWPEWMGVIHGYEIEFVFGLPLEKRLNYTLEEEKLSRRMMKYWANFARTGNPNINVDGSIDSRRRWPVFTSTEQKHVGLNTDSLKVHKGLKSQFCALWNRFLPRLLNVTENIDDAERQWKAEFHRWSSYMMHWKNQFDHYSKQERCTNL
# T1 sequence (P34972 whole entry): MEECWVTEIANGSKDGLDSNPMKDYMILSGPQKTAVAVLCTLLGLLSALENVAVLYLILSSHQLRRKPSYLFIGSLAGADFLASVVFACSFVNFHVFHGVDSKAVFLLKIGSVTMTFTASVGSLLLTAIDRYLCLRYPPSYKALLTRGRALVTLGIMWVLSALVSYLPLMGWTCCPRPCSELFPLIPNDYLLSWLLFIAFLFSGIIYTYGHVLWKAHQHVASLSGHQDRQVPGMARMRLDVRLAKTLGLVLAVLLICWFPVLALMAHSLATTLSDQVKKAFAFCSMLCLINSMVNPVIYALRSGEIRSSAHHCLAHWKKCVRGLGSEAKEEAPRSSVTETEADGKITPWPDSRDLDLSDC
smiles,measurement,setting,value
"CCOc1ccc(Cc2nc3cc(C(=O)NCCCCCCNc4c5c(nc6ccccc46)CCCC5)ccc3n2CCC(C)C)cc1 [4e, 2-(4-Ethoxybenzyl)-1-isopentyl-N-(6-((1,2,3,4-tetrahydroacridin-9-yl)amino)hexyl)-1H-benzo[d]imidazole-5-carboxamide]",IC50,eeAChE; [6],8.5 nM
same,Ki,hCB2R [1],10000 nM
same,Ki,hCB2R [1]; read-out: Ki hCB2R,9600 nM
same,"[^3H]CP 55,940 displ. @10 µM hCB1R",hCB1R,54%
"CCOc1ccc(Cc2nc3cc(C(=O)NCCOCCOCCNc4c5c(nc6ccccc46)CCCC5)ccc3n2CCC(C)C)cc1 [compound 7, 2-(4-Ethoxybenzyl)-1-isopentyl-N-(2-(2-(2-((1,2,3,4-tetrahydroacridin-9-yl)amino)ethoxy)ethoxy)ethyl)-1H-benzo[d]imidazole-5-carboxamide]",IC50,eeAChE,1030 nM
same,IC50,hAChE; IC50 AChE (hAChE),1360 nM
same,IC50,hAChE; pIC50 ± SD AChE (hAChE),1400 nM
same,Ki,hCB2R [1],15800 nM
same,affinity towards hCB2R (in words),hCB2R [1],weaker affinity
same,Ki,hCB2R [1]; read-out: Ki hCB2R,17400 nM
same,"[^3H]CP 55,940 displ. @10 µM hCB1R",hCB1R,32%
"CCOc1ccc(Cc2nc3cc(C(=O)NCCSSCCNc4c5c(nc6ccccc46)CCCC5)ccc3n2CCC(C)C)cc1 [compound 8, 2-(4-Ethoxybenzyl)-1-isopentyl-N-(2-((2-((1,2,3,4-tetrahydroacridin-9-yl)amino)ethyl)disulfaneyl)ethyl)-1H-benzo[d]imidazole-5-carboxamide]",pIC50 ± SD hBChE,hBChE; hBChE from human serum,7.1 ± 0.1
same,IC50,hBChE; [7],77 nM
same,IC50,eeAChE; [6],44 nM
same,pIC50 ± SD AChE (hAChE),hAChE; hAChE recombinant expressed,7.9 ± 0.1
same,IC50,hAChE; [8],13.4 nM
same,Ki,hCB2R [1],6310 nM
same,affinity towards hCB2R (in words),hCB2R [1],no significant effect on affinity
same,Ki,hCB2R [1]; read-out: Ki hCB2R,6800 nM
same,"[^3H]CP 55,940 displ. @10 µM hCB1R",hCB1R,45%
same,inhibition at 50 µM,Aβ42; [9],83.4 ± 6.4%
same,inhibition of Aβ42 self-aggregation (in words),Aβ42,strongly inhibited
same,inhibition of AChE-induced Aβ40 aggregation (in words),[2],not able to significantly inhibit
same,inhibition at 100 µM,[2],5 ± 2.6%
same,neuroprotective behavior (in words),HT-22 cells,neuroprotection comparable to the positive control quercetin; also recorded: showed neuroprotection
same,dose that significantly prevented Aβ25-35-induced learning impairments,[3],0.3 mg/kg
same,most effective dose (completely prevented Aβ25-35 impairments in both tests),[3],0.3 mg/kg
same,dose given for the high in vivo efficacy (conclusion),[3],0.1 mg/kg
"Nc1c2c(nc3ccccc13)CCCC2 [Tacrine 1, tacrine, reference compound]",inhibition of Aβ42 self-aggregation (in words),Aβ42,no effect
same,inhibition at 50 µM,Aβ42,< 5%
"CCOc1ccc(Cc2nc3cc(C(=O)N(CC)CC)ccc3n2CCCCNc2c3c(nc4ccccc24)CCCC3)cc1 [3c, 2-(4-ethoxybenzyl)-N,N-diethyl-1-(4-((1,2,3,4-tetrahydroacridin-9-yl)amino)butyl)-1H-benzo[d]imidazole-5-carboxamide]",IC50,eeAChE; [6],157 nM
same,Ki,hCB2R [1],25100 nM
same,Ki,hCB2R [1]; read-out: Ki hCB2R,26900 nM
same,"[^3H]CP 55,940 displ. @10 µM hCB1R",hCB1R,32%
"CCOc1ccc(Cc2nc3cc(C(=O)NCCCCNc4c5c(nc6ccccc46)CCCC5)ccc3n2CCC(C)C)cc1 [4c, 2-(4-Ethoxybenzyl)-1-isopentyl-N-(4-((1,2,3,4-tetrahydroacridin-9-yl)amino)butyl)-1H-benzo[d]imidazole-5-carboxamide]",IC50,eeAChE; [6],12.8 nM
same,Ki,hCB2R [1],2510 nM
same,Ki,hCB2R [1]; read-out: Ki hCB2R,2400 nM
same,"[^3H]CP 55,940 displ. @10 µM hCB1R",hCB1R,9%
same,MIF gene expression,hCB2R [4],reduced
same,STAT-3 gene expression,hCB2R [4],reduced
same,behavior at the hCB2R,hCB2R [4],maintained their agonist behavior
"CCOc1ccc(Cc2nc3cc(C(=O)NCCNc4c5c(nc6ccccc46)CCCC5)ccc3n2CCC(C)C)cc1 [4a, 2-(4-Ethoxybenzyl)-1-isopentyl-N-(2-((1,2,3,4-tetrahydroacridin-9-yl)amino)ethyl)-1H-benzo[d]imidazole-5-carboxamide]",IC50,eeAChE; [6],2.1 nM
same,pIC50 ± SD hCB2R (in brackets after Ki),hCB2R [1],2.5 µM (5.6 ± 0.2)
same,Ki,hCB2R [1]; read-out: Ki hCB2R,2500 nM
same,NO release / nitrite accumulation,[5],reduced
same,IL1β release,[5]; M1 marker,significantly decrease
same,iNOS expression,[5]; M1 marker,significantly decrease
same,TGFβ2 expression,[5]; M2 marker,not reduced
same,TREM2 expression,[5]; M2 marker,not reduced
same,dose that significantly prevented Aβ25-35-induced learning impairments,[3],0.3 mg/kg
same,most effective dose (completely prevented Aβ25-35 impairments in both tests),[3],1 mg/kg
"CCOc1ccc(Cc2nc3cc(C(=O)N(CC)CC)ccc3n2CCCNc2c3c(nc4ccccc24)CCCC3)cc1 [3b, 2-(4-Ethoxybenzyl)-N,N-diethyl-1-(3-((1,2,3,4-tetrahydroacridin-9-yl)amino)propyl)-1H-benzo[d]imidazole-5-carboxamide]",inhibitory potency towards hBChE compared to tacrine,hBChE,increased inhibitory potency
same,IC50,eeAChE; [6],130 nM
same,"[^3H]CP 55,940 displ. @10 µM hCB1R",hCB1R,15%
"CCOc1ccc(Cc2nc3cc(C(=O)N(CC)CC)ccc3n2CCOCCOCCNc2c3c(nc4ccccc24)CCCC3)cc1 [compound 6, 2-(4-Ethoxybenzyl)-N,N-diethyl-1-(2-(2-(2-((1,2,3,4-tetrahydroacridin-9-yl)amino)ethoxy)ethoxy)ethyl)-1H-benzo[d]imidazole-5-carboxamide]",IC50,hBChE,90 nM
same,pIC50 ± SD hBChE,hBChE,90 nM (7.0 ± 0.1)
same,IC50,eeAChE,150 nM
same,Ki,hCB2R [1],31600 nM
same,affinity towards hCB2R (in words),hCB2R [1],weaker affinity
same,Ki,hCB2R [1]; read-out: Ki hCB2R,28700 nM
same,"[^3H]CP 55,940 displ. @10 µM hCB1R",hCB1R,11%
"CCOc1ccc(Cc2nc3cc(C(=O)NCCCNc4c5c(nc6ccccc46)CCCC5)ccc3n2CCC(C)C)cc1 [4b, 2-(4-Ethoxybenzyl)-1-isopentyl-N-(3-((1,2,3,4-tetrahydroacridin-9-yl)amino)propyl)-1H-benzo[d]imidazole-5-carboxamide]",inhibitory potency towards hBChE compared to tacrine,hBChE,increased inhibitory potency
same,IC50,eeAChE; [6],3.2 nM
same,inhibitory activity towards hAChE compared to tacrine,hAChE; compared to tacrine,higher inhibitory activity
same,pIC50 ± SD hCB2R (in brackets after Ki),hCB2R [1],5.0 µM (5.3 ± 0.1)
same,Ki,hCB2R [1]; read-out: Ki hCB2R,5000 nM
same,"[^3H]CP 55,940 displ. @10 µM hCB1R",hCB1R,20%
same,inhibition at 50 µM,Aβ42; [9],16.4 ± 4.2%
same,inhibition of Aβ42 self-aggregation (in words),Aβ42,quite weak
same,inhibition of AChE-induced Aβ40 aggregation (in words),[2],significantly reduce
same,inhibition at 100 µM,[2],47.8 ± 9.6%
"CCOc1ccc(Cc2nc3cc(C(=O)NCCCCCNc4c5c(nc6ccccc46)CCCC5)ccc3n2CCC(C)C)cc1 [4d, 2-(4-Ethoxybenzyl)-1-isopentyl-N-(5-((1,2,3,4-tetrahydroacridin-9-yl)amino)pentyl)-1H-benzo[d]imidazole-5-carboxamide]",IC50,eeAChE; [6],52.7 nM
same,pIC50 ± SD hCB2R (in brackets after Ki),hCB2R [1],4.0 µM (5.4 ± 0.1)
same,Ki,hCB2R [1]; read-out: Ki hCB2R,4000 nM
same,"[^3H]CP 55,940 displ. @10 µM hCB1R",hCB1R,15%
"CCOc1ccc(Cc2nc3cc(C(=O)N(CC)CC)ccc3n2CCCCCNc2c3c(nc4ccccc24)CCCC3)cc1 [3d, 2-(4-Ethoxybenzyl)-N,N-diethyl-1-(5-((1,2,3,4-tetrahydroacridin-9-yl)amino)pentyl)-1H-benzo[d]imidazole-5-carboxamide]",IC50,eeAChE,199 nM
same,pIC50 ± SD AChE (hAChE),hAChE,199 nM^b 641 nM^c (6.2 ± 0.1)
same,IC50,hAChE; IC50 AChE (hAChE),641 nM
same,Ki,hCB2R [1],7940 nM
same,Ki,hCB2R [1]; read-out: Ki hCB2R,7300 nM
same,"[^3H]CP 55,940 displ. @10 µM hCB1R",hCB1R,21%
same,neuroprotective behavior (in words),HT-22 cells,none
same,dose that significantly prevented Aβ25-35-induced learning impairments,[3],0.3 mg/kg
"CCOc1ccc(Cc2nc3cc(C(=O)N(CC)CCCCNc4c5c(nc6ccccc46)CCCC5)ccc3n2CCC(C)C)cc1 [compound 5, 2-(4-ethoxybenzyl)-N-ethyl-1-isopentyl-N-(4-((1,2,3,4-tetrahydroacridin-9-yl)amino)butyl)-1H-benzo[d]imidazole-5-carboxamide]",SI,hBChE,6.2
same,pIC50 ± SD hBChE,hBChE; hBChE from human serum,7.2 ± 0.1
same,IC50,hBChE; [7],60 nM
same,IC50,eeAChE; [6],370 nM
same,pIC50 ± SD AChE (hAChE),hAChE; hAChE recombinant expressed,6.6 ± 0.1
same,IC50,hAChE; [8],259 nM
same,Ki,hCB2R [1],3160 nM
same,affinity towards hCB2R (in words),hCB2R [1],same affinity
same,selectivity hCB2R over hCB1R (in words),hCB2R [1],low selectivity
same,Ki,hCB2R [1]; read-out: Ki hCB2R,3000 nM
same,"[^3H]CP 55,940 displ. @10 µM hCB1R",hCB1R,36%
same,affinity towards hCB1R (in words),hCB1R,higher affinity
"Cc1c(C(=O)NN2CCCCC2)nn(-c2ccc(Cl)cc2Cl)c1-c1ccc(Cl)cc1 [Rimonabant, reference compound]","[^3H]CP 55,940 displ. @10 µM hCB2R",hCB2R [1],4%

# From patent EP3771713A1 (priority 2019, dated 2021)
